Assay [1] has as its target T1, BACE1 (Homo sapiens, UniProt P56817). The experiment in a line: In Vitro BACE Cell-based Assay (HEK cell assay): Aβ40 in conditioned medium of cells stably expressing Amyloid Precursor Protein, sandwich ELISA. In a few lines:
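Conditioned medium Aβ40 by ELISA: pAb40 capture 3 h 4° C., biotin-6E10 detection 2 h 4° C., Streptavidin-Europium TRF. IC50 fitted from % control.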

Assay [2] concerns the target T1, BACE1. The experiment in a line: In Vitro Enzymatic BACE FRET (Fluorescence Resonance Energy Transfer) Assay. Format: biochemical. In outline:
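Buffer: 0.05 M acetate, pH 4.2, 10% DMSO final, 100 uM genapol. Start: FRET substrate 50 nM. Incubation 1 h. Stop: Tris to neutral pH. Read: fluorescence.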

The mark [3] stands for this setting: HEK cell-based assay, Aβ40 in conditioned medium, IC50 class symbols, read-out: HEK cell assay.
[4] abbreviates: in vitro BACE FRET enzyme assay, IC50 class symbols, read-out: BACE1 FRET assay.
The mark [5] stands for this setting: Table IV, class symbols, read-out: HEK cell assay.
Where [6] appears, read: Table IV, class symbols, read-out: BACE1 FRET assay.
The mark [7] stands for this setting: HEK cells, read-out: HEK cell assay.
Setting [8] is: Table II, Aβ40, 24 h incubation, read-out: HEK cell assay.
Setting [9] is: Table II, read-out: BACE1 FRET assay.
[10] abbreviates: Table III, IC50's in uM ranges, read-out: HEK cell assay.
Setting [11] is: Table III, IC50's in uM ranges, read-out: BACE1 FRET assay.

Some results are limits rather than exact numbers.

T1 sequence (P56817 46-501, species assumed): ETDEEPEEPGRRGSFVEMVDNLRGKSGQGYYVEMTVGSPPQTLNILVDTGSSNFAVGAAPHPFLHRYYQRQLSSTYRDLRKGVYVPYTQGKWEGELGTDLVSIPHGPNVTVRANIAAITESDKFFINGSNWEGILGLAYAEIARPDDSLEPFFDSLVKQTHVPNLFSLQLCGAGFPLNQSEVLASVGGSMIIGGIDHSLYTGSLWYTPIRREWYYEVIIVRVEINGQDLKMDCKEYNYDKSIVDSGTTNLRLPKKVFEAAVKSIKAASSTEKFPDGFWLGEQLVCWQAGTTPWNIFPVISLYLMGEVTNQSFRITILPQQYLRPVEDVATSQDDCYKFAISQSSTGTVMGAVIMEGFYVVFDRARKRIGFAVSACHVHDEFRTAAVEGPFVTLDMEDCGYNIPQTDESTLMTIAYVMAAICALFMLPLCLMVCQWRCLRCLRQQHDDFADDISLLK

For `C[Si](C)(C)C#Cc1cnc2c(c1)[C@]1(COC(N)=N1)c1cc(-c3cccnc3)ccc1O2` [compound 348], the IC50 at BACE1 [1] (setting [3]) and on BACE1 [2] (setting [4]) was under 0.1 µM in each case.
On to `NC1=N[C@@]2(CO1)c1cc(-c3cccnc3F)ccc1Oc1cnc(-c3ccccc3)cc12` [compound 494], for which the IC50 on BACE1 [1] (HEK cell assay (uM), HEK cells) is under 0.1 µM; on BACE1 [2] (BACE1 FRET assay (uM)), under 0.1 µM.
On to `COc1ccc2c(c1)[C@@]1(COC(N)=N1)c1cc(Br)cc(F)c1O2` [compound 378], for which the IC50 at BACE1 [1] (setting [3]) is over 5 µM; on BACE1 [2] (setting [4]) it was 1 to 5 µM.
In the case of `NC1=N[C@@]2(CO1)c1cc(-c3cncnc3)ccc1Oc1ccc(-c3cccc(OC(F)(F)F)c3)cc12` [compound 839], the figures for the IC50 at BACE1 [1] (setting [5]) and at BACE1 [2] (setting [6]) were 1 to 5 µM and under 0.1 µM, respectively.
`C[C@@H]1CN(c2cc(F)c3c(c2)[C@]2(COC(N)=N2)c2cc(-c4cncnc4)ccc2O3)C[C@H](C)O1` [compound 501]: the IC50 at BACE1 [1] (setting [7]) and at BACE1 [2] (read-out: BACE1 FRET assay) was under 0.1 µM each time.
For the molecule `CC(C)(C)COc1ccc2c(c1)[C@]1(COC(N)=N1)c1cc(-c3csc(C(F)F)c3)ccc1O2` [compound 737], the IC50 was 0.1 to 1 µM at BACE1 [1] (read-out: HEK cell assay) and under 0.1 µM at BACE1 [2] (read-out: BACE1 FRET assay).
On to `CC(C)(C)COc1ccc2c(c1)[C@@]1(COC(N)=N1)c1cc(-c3ccccc3)cnc1O2` [compound 807], for which the IC50 on BACE1 [1] (setting [5]) and on BACE1 [2] (setting [6]) was under 0.1 µM in each case.
On to `NC1=N[C@@]2(CO1)c1cnccc1Oc1ccc(-c3cccnc3)cc12` [compound 556], for which the IC50 on BACE1 [1] (setting [5]) and on BACE1 [2] (setting [6]) was 0.1 to 1 µM in each case.
Regarding `Cc1ncccc1-c1ccc2c(c1)[C@@]1(COC(N)=N1)c1cc(OCC(C)(C)C)ccc1O2` [Example 79, (4S)-2′-(2,2-dimethylpropoxy)-7′-(2-methyl-3-pyridinyl)spiro[1,3-oxazole-4,9′-xanthen]-2-amine], the IC50 at BACE1 [1] (setting [8]) and on BACE1 [2] (setting [9]) was 0.1 to 1 µM each time.
Regarding `Cn1cc(-c2ccc3c(c2)[C@@]2(COC(N)=N2)c2cc(OCC(C)(C)C)ccc2O3)cn1` [Example 82, (4S)-2′-(2,2-dimethylpropoxy)-7′-(1-methyl-1H-pyrazol-4-yl)spiro[1,3-oxazole-4,9′-xanthen]-2-amine], the IC50 at BACE1 [1] (setting [8]) is 1 to 5 µM; at BACE1 [2] (setting [9]), 0.1 to 1 µM.
As for `Cc1csc(-c2ccc3c(c2)[C@]2(COC(N)=N2)c2cc(-c4cccnc4)ccc2O3)c1` [compound 726], the values for the IC50 on BACE1 [1] (read-out: HEK cell assay) and on BACE1 [2] (read-out: BACE1 FRET assay) were 0.1 to 1 µM and under 0.1 µM, respectively.
With `CC(C)(C)COc1ccc2c(c1)[C@]1(COC(N)=N1)c1cc(-c3ccc4[nH]ccc4c3)ccc1O2` [Example 73, (4S)-2′-(2,2-dimethylpropoxy)-7′-(1H-indol-5-yl)spiro[1,3-oxazole-4,9′-xanthen]-2-amine], the IC50 on BACE1 [1] (setting [8]) was 1 to 5 µM; at BACE1 [2] (setting [9]) it was 0.1 to 1 µM.
Consider `NC1=N[C@@]2(CO1)c1cc(-c3cccnc3F)ccc1Oc1ncccc12` [compound 570], for which the IC50 on BACE1 [1] (setting [5]) was 0.1 to 1 µM; at BACE1 [2] (setting [6]) it was under 0.1 µM.
`COc1ccc2c(c1)C1(COC(N)=N1)c1cc(-c3cccc(OC)c3F)ccc1O2` (stereo not shown) [Example 17, 2′-(2-fluoro-3-methoxyphenyl)-7′-methoxyspiro[1,3-oxazole-4,9′-xanthen]-2-amine]: the IC50 on BACE1 [1] (Table 1, Aβ40, 24 h incubation, read-out: HEK cell assay) fell in the range of 1 to 5 µM; on BACE1 [2] (Table 1, read-out: BACE1 FRET assay), 1 to 5 µM.
For `NC1=N[C@@]2(CO1)c1cc(C#CC3CC3)ccc1Oc1ccc(Oc3ccccn3)cc12` [compound 211], the IC50 was in the range of 1 to 5 µM on BACE1 [1] (setting [10]) and 0.1 to 1 µM at BACE1 [2] (setting [11]).
Consider `NC1=N[C@@]2(CO1)c1cc(-c3cccnc3F)ccc1Oc1c(F)cc(C3CCOCC3)cc12` [compound 385, (4S)-4′-fluoro-7′-(2-fluoro-3-pyridinyl)-2′-(tetrahydro-2H-pyran-4-yl)spiro[1,3-oxazole-4,9′-xanthen]-2-amine], for which the IC50 at BACE1 [1] (setting [3]) and on BACE1 [2] (setting [4]) was under 0.1 µM in each case.
For `CC(=O)c1cccc(-c2ccc3c(c2)[C@@]2(COC(N)=N2)c2cc(OCC(C)(C)C)ccc2O3)c1` [compound 973], the IC50 on BACE1 [1] (read-out: HEK cell assay) is 1 to 5 µM; at BACE1 [2] (read-out: BACE1 FRET assay), 0.1 to 1 µM.
As for `NC1=N[C@@]2(CO1)c1cc(-c3cccnc3)ccc1Oc1cnc(N3CCC4(CC3)OCCO4)cc12` [compound 443], the IC50 at BACE1 [1] (setting [7]) and at BACE1 [2] (read-out: BACE1 FRET assay) was under 0.1 µM each time.
Regarding `NC1=N[C@@]2(CS1)c1cc(Cl)ccc1Oc1ccc(-c3cncnc3)cc12` [Example 39, (4R)-2′-chloro-7′-(5-pyrimidinyl)spiro[1,3-thiazole-4,9′-xanthen]-2-amine], the IC50 at BACE1 [1] (setting [8]) is over 5 µM; at BACE1 [2] (setting [9]), 0.1 to 1 µM.
For `NC1=N[C@@]2(CO1)c1ccccc1Oc1ccc(-c3cncnc3)cc12` [compound 844], the IC50 at BACE1 [1] (setting [5]) and at BACE1 [2] (setting [6]) was 0.1 to 1 µM in each case.
Regarding `NC1=N[C@]2(CO1)c1cc(Br)ccc1Oc1cnc(Cl)cc12` [compound 549], the IC50 at BACE1 [1] (setting [5]) and at BACE1 [2] (setting [6]) was over 5 µM throughout.
As for `CC1(C)CC(c2cc3c(cn2)Oc2ccc(-c4cccnc4)cc2[C@@]32COC(N)=N2)=CCO1` [compound 436], the IC50 at BACE1 [1] (setting [7]) and at BACE1 [2] (read-out: BACE1 FRET assay) was under 0.1 µM in each case.
Regarding `CC(=O)COc1ccc2c(c1)[C@]1(COC(N)=N1)c1cc(C#CC3CC3)ccc1O2` [compound 200], the IC50 at BACE1 [1] (setting [10]) and at BACE1 [2] (setting [11]) was 0.1 to 1 µM each time.
With `COc1ccc2c(c1)[C@@]1(COC(N)=N1)c1cc(-c3cccnc3)cnc1O2` [compound 670], the IC50 lay within 1 to 5 µM on BACE1 [1] (read-out: HEK cell assay) and 0.1 to 1 µM at BACE1 [2] (read-out: BACE1 FRET assay).
Turning to `NC1=N[C@]2(CO1)c1ccccc1Oc1cc(F)c(-c3cccnc3)cc12` [compound 569], the IC50 on BACE1 [1] (setting [5]) and on BACE1 [2] (setting [6]) was 0.1 to 1 µM throughout.
As for `CC(C)(C)CCc1cnc2c(c1)[C@]1(COC(N)=N1)c1cc(-c3cncnc3)ccc1O2` [compound 472], the IC50 on BACE1 [1] (setting [7]) and on BACE1 [2] (read-out: BACE1 FRET assay) was under 0.1 µM in each case.
As for `CCOC(C)(C)COc1ccc2c(c1)[C@]1(COC(N)=N1)c1cc(-c3cncnc3)ccc1O2` [compound 170], the IC50 at BACE1 [1] (setting [10]) and at BACE1 [2] (setting [11]) was under 0.1 µM in each case.
With `CC(C)(C)COc1ccc2c(n1)[C@]1(COC(N)=N1)c1cc(-c3cncnc3)ccc1O2` [compound 733], the IC50 on BACE1 [1] (read-out: HEK cell assay) and on BACE1 [2] (read-out: BACE1 FRET assay) was under 0.1 µM in each case.
For the molecule `NC1=N[C@@]2(CO1)c1cc(-c3cccnc3)ccc1Oc1cnc(C3=CCCCC3)cc12` [compound 848], the IC50 at BACE1 [1] (setting [5]) and at BACE1 [2] (setting [6]) was under 0.1 µM each time.
`Cn1ccc2cc(-c3ccc4c(c3)[C@@]3(COC(N)=N3)c3cc(OCC(C)(C)C)ccc3O4)ccc21` [compound 914]: the results for the IC50 at BACE1 [1] (setting [5]) and at BACE1 [2] (setting [6]) were over 5 µM and 0.1 to 1 µM, respectively.
As for `NC1=N[C@]2(CO1)c1cc(OCC3CCOCC3)ccc1Oc1ccc(-c3cccnc3)cc12` [compound 933], the IC50 on BACE1 [1] (read-out: HEK cell assay) and on BACE1 [2] (read-out: BACE1 FRET assay) was under 0.1 µM in each case.
Consider `NC1=N[C@@]2(CO1)c1cc(-c3cccnc3)ccc1Oc1cnc(N3CCNCC3)cc12` [compound 439], for which the IC50 at BACE1 [1] (setting [7]) and on BACE1 [2] (read-out: BACE1 FRET assay) was under 0.1 µM in each case.
Turning to `CC(C)(C)c1nc(-c2ccc3c(c2)[C@]2(COC(N)=N2)c2cc(-c4cccnc4)ccc2O3)cs1` [compound 622], the values for the IC50 at BACE1 [1] (setting [5]) and on BACE1 [2] (setting [6]) were 0.1 to 1 µM and under 0.1 µM, respectively.
For `CC(C)(O)C#Cc1cnc2c(c1)[C@]1(COC(N)=N1)c1cc(-c3cncnc3)ccc1O2` [compound 823] the same measures were under 0.1 µM and under 0.1 µM.
For the molecule `NC1=N[C@@]2(CO1)c1ccccc1Oc1ccc(-c3cccnc3)cc12` [compound 640], the IC50 at BACE1 [1] (setting [5]) and at BACE1 [2] (setting [6]) was 1 to 5 µM each time.
As for `CC(C)Cn1cc(-c2ccc3c(c2)[C@]2(COC(N)=N2)c2cc(-c4cccnc4)ccc2O3)cn1` [compound 708], the figures for the IC50 on BACE1 [1] (read-out: HEK cell assay) and at BACE1 [2] (read-out: BACE1 FRET assay) were 0.1 to 1 µM and under 0.1 µM, respectively.
For `NC1=N[C@]2(CO1)c1ccccc1Oc1ccc(-c3cccnc3)cc12` [compound 684] the same measures were 0.1 to 1 µM and 0.1 to 1 µM.
As for `NC1=N[C@@]2(CO1)c1cc(-c3cccnc3)ccc1Oc1cc(F)c(C3=CCOCC3)cc12` [compound 476], the IC50 on BACE1 [1] (setting [7]) and at BACE1 [2] (read-out: BACE1 FRET assay) was under 0.1 µM in each case.
Consider `NC1=N[C@@]2(CO1)c1cc(-c3cccc(Cl)c3)ccc1Oc1cnc(C3=CCOCC3)cc12` [compound 427, (5S)-7-(3-chlorophenyl)-3-(3,6-dihydro-2H-pyran-4-yl)spiro[chromeno[2,3-c]pyridine-5,4′-[1,3]oxazol]-2′-amine], for which the IC50 on BACE1 [1] (setting [7]) and at BACE1 [2] (read-out: BACE1 FRET assay) was under 0.1 µM in each case.
`NC1=N[C@@]2(CO1)c1cc(-c3cccnc3)ccc1Oc1cnc(C3=CCOCC3)cc12` [compound 790]: the IC50 on BACE1 [1] (read-out: HEK cell assay) and on BACE1 [2] (read-out: BACE1 FRET assay) was under 0.1 µM throughout.
In the case of `COC(C)(C)COc1ccc2c(c1)[C@@]1(COC(N)=N1)c1cc(-c3cccnc3)cnc1O2` [compound 983], the IC50 at BACE1 [1] (read-out: HEK cell assay) and at BACE1 [2] (read-out: BACE1 FRET assay) was under 0.1 µM throughout.
`CC(C)(O)C#Cc1cnc2c(c1)[C@]1(COC(N)=N1)c1cc(-c3ccccc3)ccc1O2` [compound 647]: the IC50 at BACE1 [1] (setting [5]) and on BACE1 [2] (setting [6]) was under 0.1 µM throughout.
As to `NC1=N[C@@]2(CO1)c1cc(-c3cccc(F)c3)ccc1Oc1cnc(C3=CCOCC3)cc12` [compound 485], the IC50 at BACE1 [1] (setting [7]) and at BACE1 [2] (read-out: BACE1 FRET assay) was under 0.1 µM in each case.
Regarding `CC(C)(C)C#Cc1ccc2c(n1)[C@]1(COC(N)=N1)c1cc(-c3cccnc3)ccc1O2` [compound 854], the IC50 on BACE1 [1] (setting [5]) and at BACE1 [2] (setting [6]) was under 0.1 µM each time.

Values taken from patent US8426447B2, “Spiro-tricyclic ring compounds as beta-secretase modulators and methods of use” (Amgen Inc., priority 2008, dated 2013).
